Source: patent publication US9302999B2, “Substituted triazoles as herbicides” (E. I. DU PONT DE NEMOURS AND COMPANY, priority 2012, dated 2016)

Columns and labels:
Format in all cases: in vivo
kochia (Kochia scoparia) = experiment: Test E pre-/postemergence: kochia; conditions: Preemergence, scale 0 to 100
From the text: (§1) Seeds of plant species selected from corn (Zea mays), soybean (Glycine max), velvetleaf (Abutilon theophrasti), lambsquarters (Chenopodium album), poinsettia, wild (wild poinsettia, Euphorbia heterophylla), pigweed, palmer (palmer pigweed, Amaranthus palmeri), waterhemp (common waterhemp, Amaranthus rudis), smartweed (ladysthumb smartweed, Polygonum persicaria), surinam grass (Brachiaria decumbens), crabgrass, large (large crabgrass, Digitaria sanguinalis), crabgrass, Brazil (Brazilian crabgrass, Digitaria horizontalis), panicum, fall (fall panicum, Panicum dichotomiflorum), foxtail, giant (giant foxtail, Setaria faberii), foxtail, green (green foxtail, Setaria viridis), goosegrass (Eleusine indica), johnsongrass (Sorghum halepense), ragweed (common ragweed, Ambrosia elation), barnyardgrass (Echinochloa crus-galli), sandbur (southern sandbur, Cenchrus echinatus), arrowleaf sida (Sida rhombifolia), ryegrass, Italian (Italian ryegrass, Lolium multiflorum), dayflower, (VA) (Virginia dayflower, Commelina virginica), field bindweed (Convolvulus arvensis), cocklebur (common cocklebur, Xanthium strumarium), morningglory (Ipomoea coccinea), nightshade (eastern black nightshade, Solanum ptycanthum), kochia (Kochia scoparia), nutsedge, yellow (yellow nutsedge, Cyperus esculentus) and beggarticks (hairy beggarticks, Bidens pilosa) were planted into a silt loam soil and treated preemergence with test chemicals formulated in a non-phytotoxic solvent mixture which included a surfactant. At the same time, plants selected from these crop and weed species were planted in pots containing a growing medium comprising spaghnum peat moss, vermiculite, wetting agent and starter nutrients and treated with postemergence applications of some of the test chemicals formulated in the same manner. Plants ranged in height from 2 to 18 cm for postemergence treatments (1- to 4-leaf stage).
(§2) Treated plants and controls were maintained in a greenhouse for 14 to 21 days, after which time all species were compared to controls and visually evaluated. Plant response ratings, summarized in Table E, are based on a scale of 0 to 100 where 0 is no effect and 100 is complete control. A dash (-) response means no test result.

[1] = tested on: nutsedge, yellow (yellow nutsedge, Cyperus esculentus); experiment: Test E pre-/postemergence: nutsedge, yellow; conditions: Preemergence, scale 0 to 100
From the text: as §1, §2

[2] = tested on: cocklebur (common cocklebur, Xanthium strumarium); experiment: Test E pre-/postemergence: cocklebur; conditions: Preemergence, scale 0 to 100
From the text: as §1, §2

[3] = tested on: smartweed (ladysthumb smartweed, Polygonum persicaria); experiment: Test E pre-/postemergence: smartweed; conditions: Preemergence, scale 0 to 100
From the text: as §1, §2

[4] = tested on: lambsquarters (Chenopodium album); experiment: Test E pre-/postemergence: lambsquarters; conditions: Preemergence, scale 0 to 100
From the text: as §1, §2

[5] = tested on: poinsettia, wild (wild poinsettia, Euphorbia heterophylla); experiment: Test E pre-/postemergence: poinsettia, wild; conditions: Preemergence, scale 0 to 100
From the text: as §1, §2

[6] = tested on: barnyardgrass (Echinochloa crus-galli); experiment: Test E pre-/postemergence: barnyardgrass; conditions: Preemergence, scale 0 to 100
From the text: as §1, §2

corn (Zea mays) = experiment: Test E pre-/postemergence: corn; conditions: Preemergence, scale 0 to 100
From the text: as §1, §2

[7] = tested on: morningglory (Ipomoea coccinea); experiment: Test E pre-/postemergence: morningglory; conditions: Preemergence, scale 0 to 100
From the text: as §1, §2

[8] = tested on: dayflower, (VA) (Virginia dayflower, Commelina virginica); experiment: Test E pre-/postemergence: dayflower, (VA); conditions: Preemergence, scale 0 to 100
From the text: as §1, §2

[9] = tested on: nightshade (eastern black nightshade, Solanum ptycanthum); experiment: Test E pre-/postemergence: nightshade; conditions: Preemergence, scale 0 to 100
From the text: as §1, §2

[10] = tested on: smartweed (ladysthumb smartweed, Polygonum persicaria); experiment: Test F pre-/postemergence: smartweed; conditions: Preemergence
From the text: Seeds of plant species selected from corn (Zea mays), soybean (Glycine max), velvetleaf (Abutilon theophrasti), lambsquarters (Chenopodium album), poinsettia, wild (wild poinsettia, Euphorbia heterophylla), pigweed, palmer (palmer pigweed, Amaranthus palmeri), waterhemp (common waterhemp, Amaranthus rudis), surinam grass (Brachiaria decumbens), crabgrass, Brazil (Brazilian crabgrass, Digitaria horizontalis), panicum, fall (fall panicum Panicum dichotomiflorum), crabgrass, large (large crabgrass, Digitaria sanguinalis), foxtail, giant (giant foxtail, Setaria faberii), foxtail, green (green foxtail Setaria viridis), goosegrass (Eleusine indica), ragweed (common ragweed, Ambrosia elatior), barnyardgrass (Echinochloa crus-galli), sandbur (southern sandbur, Cenchrus echinatus), arrowleaf sida (Sida rhombifolia), ryegrass, Italian (Italian ryegrass, Lolium multiflorum), dayflower, VA (Virginia (VA) dayflower, Commelina virginica), field bindweed (Convolvulus arvensis), cocklebur (common cocklebur, Xanthium strumarium), morningglory (Ipomoea coccinea), nightshade (eastern black nightshade, Solanum ptycanthum), kochia (Kochia scoparia), nutsedge, yellow (yellow nutsedge, Cyperus esculentus), johnsongrass (Sorghum halepense), smartweed (ladysthumb smartweed, Polygonum persicaria), and beggarticks (hairy beggarticks, Bidens pilosa), were planted into a silt loam soil and treated preemergence with test chemicals formulated in a non-phytotoxic solvent mixture which included a surfactant. At the same time, plants selected from these crop and weed species and also pigweed (Amaranthus retroflexus), waterhemp_RES1 (ALS/Triazine resistant common waterhemp, Amaranthus rudis) and waterhemp_RES2 (ALS/HPPD resistant common waterhemp, Amaranthus rudis) were planted in pots containing a planting medium comprising spaghnum peat moss, vermiculite, wetting agent and starter nutrients treated with postemergence applications of some of the test chemicals formulated in the same manner. Plants ranged in height from 2 to 18 cm for postemergence treatments (1- to 4-leaf stage).
as §2

FC(F)(F)COc1nn(-c2ccc(C(F)(F)F)cc2)nc1Cc1ccnc(C(F)(F)F)c1 [Compound 14, 4-[[5-(2,2,2-trifluoroethoxy)-2-[4-(trifluoromethyl)phenyl]-2H-1,2,3-triazol-4-yl]methyl]-2-(trifluoromethyl)pyridine]
80: Plant response rating: Smartweed ([3]; 62 g ai/ha) | Plant response rating: Smartweed ([3]; 250 g ai/ha) | Plant response rating: Lambsquarters ([4]; 16 g ai/ha)
0: Plant response rating: Nutsedge, Yellow ([1]; 16 g ai/ha) | Plant response rating: Nutsedge, Yellow ([1]; 31 g ai/ha) | Plant response rating: Nutsedge, Yellow ([1]; 62 g ai/ha) | Plant response rating: Nutsedge, Yellow ([1]; 125 g ai/ha) | Plant response rating: Cocklebur ([2]; 16 g ai/ha) | Plant response rating: Cocklebur ([2]; 31 g ai/ha) | Plant response rating: Cocklebur ([2]; 62 g ai/ha) | Plant response rating: Corn (corn (Zea mays); 16 g ai/ha) | Plant response rating: Corn (corn (Zea mays); 31 g ai/ha) | Plant response rating: Corn (corn (Zea mays); 62 g ai/ha) | Plant response rating: Corn (corn (Zea mays); 125 g ai/ha) | Plant response rating: Corn (corn (Zea mays); 250 g ai/ha) | Plant response rating: Morningglory ([7]; 16 g ai/ha)
50: Plant response rating: Kochia (kochia (Kochia scoparia); 31 g ai/ha) | Plant response rating: Cocklebur ([2]; 125 g ai/ha) | Plant response rating: Poinsettia, Wild ([5]; 62 g ai/ha) | Plant response rating: Dayflower, VA ([8]; 31 g ai/ha)
10: Plant response rating: Dayflower, VA ([8]; 16 g ai/ha)
65: Plant response rating: Poinsettia, Wild ([5]; 125 g ai/ha)
25: Plant response rating: Smartweed ([3]; 31 g ai/ha) | Plant response rating: Poinsettia, Wild ([5]; 31 g ai/ha)
60: Plant response rating: Barnyardgrass ([6]; 125 g ai/ha) | Plant response rating: Barnyardgrass ([6]; 250 g ai/ha) | Plant response rating: Dayflower, VA ([8]; 62 g ai/ha) | Plant response rating: Nightshade ([9]; 31 g ai/ha)
75: Plant response rating: Poinsettia, Wild ([5]; 250 g ai/ha) | Plant response rating: Morningglory ([7]; 125 g ai/ha) | Plant response rating: Morningglory ([7]; 250 g ai/ha) | Plant response rating: Dayflower, VA ([8]; 250 g ai/ha)
20: Plant response rating: Kochia (kochia (Kochia scoparia); 16 g ai/ha) | Plant response rating: Morningglory ([7]; 31 g ai/ha)
98: Plant response rating: Kochia (kochia (Kochia scoparia); 125 g ai/ha) | Plant response rating: Lambsquarters ([4]; 31 g ai/ha) | Plant response rating: Lambsquarters ([4]; 62 g ai/ha) | Plant response rating: Lambsquarters ([4]; 125 g ai/ha) | Plant response rating: Lambsquarters ([4]; 250 g ai/ha) | Plant response rating: Nightshade ([9]; 62 g ai/ha) | Plant response rating: Nightshade ([9]; 125 g ai/ha) | Plant response rating: Nightshade ([9]; 250 g ai/ha)
15: Plant response rating: Nutsedge, Yellow ([1]; 250 g ai/ha) | Plant response rating: Poinsettia, Wild ([5]; 16 g ai/ha) | Plant response rating: Barnyardgrass ([6]; 31 g ai/ha)
35: Plant response rating: Barnyardgrass ([6]; 62 g ai/ha) | Plant response rating: Morningglory ([7]; 62 g ai/ha) | Plant response rating: Nightshade ([9]; 16 g ai/ha)
5: Plant response rating: Barnyardgrass ([6]; 16 g ai/ha)
70: Plant response rating: Dayflower, VA ([8]; 125 g ai/ha)
90: Plant response rating: Kochia (kochia (Kochia scoparia); 62 g ai/ha)
100: Plant response rating: Kochia (kochia (Kochia scoparia); 250 g ai/ha)

Cc1nn(-c2ccc(C(F)(F)F)cn2)nc1Oc1ccnc(C(F)(F)F)c1 [Compound 23]
15: Plant response rating: Nutsedge, Yellow ([1]; 125 g ai/ha) | Plant response rating: Nutsedge, Yellow ([1]; 250 g ai/ha)
0: Plant response rating: Kochia (kochia (Kochia scoparia); 16 g ai/ha) | Plant response rating: Kochia (kochia (Kochia scoparia); 31 g ai/ha) | Plant response rating: Nutsedge, Yellow ([1]; 16 g ai/ha) | Plant response rating: Nutsedge, Yellow ([1]; 31 g ai/ha) | Plant response rating: Nutsedge, Yellow ([1]; 62 g ai/ha) | Plant response rating: Cocklebur ([2]; 16 g ai/ha) | Plant response rating: Cocklebur ([2]; 31 g ai/ha) | Plant response rating: Cocklebur ([2]; 62 g ai/ha) | Plant response rating: Cocklebur ([2]; 125 g ai/ha) | Plant response rating: Cocklebur ([2]; 250 g ai/ha) | Plant response rating: Lambsquarters ([4]; 31 g ai/ha) | Plant response rating: Lambsquarters ([4]; 62 g ai/ha) | Plant response rating: Poinsettia, Wild ([5]; 16 g ai/ha) | Plant response rating: Poinsettia, Wild ([5]; 31 g ai/ha) | Plant response rating: Poinsettia, Wild ([5]; 62 g ai/ha) | Plant response rating: Barnyardgrass ([6]; 16 g ai/ha) | Plant response rating: Barnyardgrass ([6]; 31 g ai/ha) | Plant response rating: Barnyardgrass ([6]; 62 g ai/ha) | Plant response rating: Corn (corn (Zea mays); 16 g ai/ha) | Plant response rating: Corn (corn (Zea mays); 31 g ai/ha) | Plant response rating: Corn (corn (Zea mays); 62 g ai/ha) | Plant response rating: Corn (corn (Zea mays); 125 g ai/ha) | Plant response rating: Dayflower, VA ([8]; 16 g ai/ha) | Plant response rating: Dayflower, VA ([8]; 31 g ai/ha) | Plant response rating: Dayflower, VA ([8]; 62 g ai/ha) | Plant response rating: Nightshade ([9]; 16 g ai/ha) | Plant response rating: Nightshade ([9]; 31 g ai/ha) | Plant response rating: Nightshade ([9]; 62 g ai/ha)
60: Plant response rating: Kochia (kochia (Kochia scoparia); 62 g ai/ha)
5: Plant response rating: Dayflower, VA ([8]; 125 g ai/ha) | Plant response rating: Dayflower, VA ([8]; 250 g ai/ha)
35: Plant response rating: Poinsettia, Wild ([5]; 125 g ai/ha) | Plant response rating: Poinsettia, Wild ([5]; 250 g ai/ha)
100: Plant response rating: Kochia (kochia (Kochia scoparia); 125 g ai/ha) | Plant response rating: Kochia (kochia (Kochia scoparia); 250 g ai/ha)
20: Plant response rating: Barnyardgrass ([6]; 125 g ai/ha) | Plant response rating: Barnyardgrass ([6]; 250 g ai/ha) | Plant response rating: Corn (corn (Zea mays); 250 g ai/ha)
95: Plant response rating: Nightshade ([9]; 125 g ai/ha)
98: Plant response rating: Lambsquarters ([4]; 125 g ai/ha) | Plant response rating: Lambsquarters ([4]; 250 g ai/ha) | Plant response rating: Nightshade ([9]; 250 g ai/ha)

Cc1nn(-c2ccc(C(F)(F)F)c(F)c2)nc1Oc1ccnc(C(F)(F)F)c1 [Compound 148]
75: Plant response rating, Smartweed ([10]; 125 g ai/ha, scale 0 to 100)
90: Plant response rating, Smartweed ([10]; 250 g ai/ha, scale 0 to 100)
0: Plant response rating, Smartweed ([10]; 16 g ai/ha, scale 0 to 100, 0 no effect, 100 complete control) | Plant response rating, Smartweed ([10]; 31 g ai/ha, scale 0 to 100, 0 no effect, 100 complete control)
